Laboratory results published in EPA's ToxValDB 9.5 (doi:10.2903/j.efsa.2009.217r).
In brackets after ≈: the same amount, converted by molar mass.

Columns and labels:
[1] = system: Tagia sp.; conditions: acute; duration: 14 days; mortality
[2] = system: Colinus virginianus; conditions: acute; oral; diet; mortality
[3] = system: Pimephales promelas; conditions: chronic/long-term; duration: 21 days; growth
[4] = system: Oncorhynchus mykiss; conditions: acute; duration: 96 hours; mortality
[5] = system: Anas platyrhynchos; conditions: oral, mortality
[6] = system: Oryctolagus sp.; conditions: reproduction developmental; body weight
[7] = system: Bibionidae; conditions: chronic/long-term; duration: 28 days
[8] = system: Rattus norvegicus

Oc1ccccc1-c1ccccc1 [2-Phenylphenol]
LC50 [1]: 198 mg/kg | LC50 [2]: > 2810 mg/kg-day | NOEC [3]: 0.036 mg/L | LC50 [4]: 4 µg/mL (≈ 23.5 µM) | LD50 ([5]; acute, unspecified): > 2250 mg/kg-day | LC50 ([5]; short-term, feed): > 1900 mg/kg-day | NOAEL [6]: 100 mg/kg-day | NOEC [7]: 1.85 mg/L | LD50 ([8]; acute, oral, mortality): 2730 mg/kg-day | NOAEL ([8]; chronic, duration: 2 years, oral, Fischer 344, histopathology: neoplastic): 39 mg/kg-day | NOAEL ([8]; reproduction developmental): 500 mg/kg-day
